What all share (test): DTP human tumour cell line panel, 48 h
Experiment [1] concerns M14 melanoma.
Experiment [2] relates to OVCAR-5 ovarian.
Experiment [3] deals with SNB-75 CNS.
Experiment [4] has as its system MALME-3M melanoma.
In experiment [5] the test system is HT29 colon.
In experiment [6] the test system is TK-10 renal.
Experiment [7] deals with SK-MEL-2 melanoma.
The subject of experiment [8] is NCI/ADR-RES ovarian.
Experiment [9] has as its system OVCAR-8 ovarian.
Experiment [10] has as its system NCI-H522 lung.

Values joined by “and” are separate entries in the source; they are usually repeats but may differ in a detail not shown here. Equal values may be shown once.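 Step 1: Grow cells in 96-well plates. Step 2: Expose to compound for 48 hours at 5 concentrations. Step 3: Interpolate endpoints linearly; if unreached, use highest concentration. GI50 marks 50% less growth. TGI: concentration producing complete growth inhibition.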

On to `COC(=O)/C=C1\SC(=Nc2ccc(C(F)(F)F)cc2)N(CCc2c[nH]c3ccccc23)C1=O`, for which the GI50 (in general, the concentration at which growth is held to half of that of the control) is 1.46 µM in experiment [1]; 1.79 µM in experiment [2]; 1.21 µM in experiment [3]; 1.79 µM in experiment [4]; 1.86 µM in experiment [5]; 2.06 µM in [6]. For the same compound, the GI50 in experiment [7] is 1.65 µM; in experiment [8] it was 1.89 µM; in experiment [9], 1.74 µM; in experiment [10], 1.71 µM. Besides, the TGI (in general, the concentration at which net growth stops) in experiment [1] came to 2.9 µM; in experiment [2] it was 3.38 µM; in experiment [3] it was 2.48 µM; in [4] it was 3.3 µM; in experiment [5] it was 4.56 µM; in experiment [6], 3.94 µM. Moreover, the TGI in [7] amounted to 3.43 µM; in experiment [8], 4.31 µM; in [9], 4.6 µM; in experiment [10], 3.91 µM.

As to `O=C(CSc1nc2ccc([N+](=O)[O-])cc2[nH]1)Nc1cccc(C(F)(F)F)c1`, the GI50 in [1] is 3.17 µM; in [2], 2.62 µM; in [3], 1.61 µM; in experiment [4], 1.48 µM; in [5] it was 2.78 µM; in experiment [6] it was 3.14 µM. In addition, the GI50 was 1.96 µM in experiment [7], 2.29 µM in [8], 2.93 µM in [9] and 1.55 µM in experiment [10]. Also, the concentration for total growth inhibition (TGI) was 14.9 µM in experiment [1]; 11.1 µM in experiment [2]; 7.81 µM in experiment [3]; 6.66 µM in experiment [4]; 11.3 µM in [5]; 10.9 µM in experiment [6]. In addition, the total growth inhibition concentration (TGI) in experiment [7] worked out at 5.99 µM; in experiment [8], 8.75 µM; in experiment [9] it was 15.8 µM; in experiment [10], 9.05 µM.

As for `O=C1C(Cl)=C(Oc2ccccc2)C(=O)c2ccccc21`, the GI50 in experiment [1] is 8.55 µM; in experiment [2] it was 16.7 µM; in experiment [3], 1.93 µM; in experiment [4], 1.6 µM; in experiment [5], 3.09 µM; in experiment [6], 1.87 µM. Further, the GI50 in [7] was 6.56 µM; in experiment [8], 7.75 µM; in [9], 14.3 µM; in experiment [10], 1.51 µM. For the same compound, the total growth inhibition concentration (TGI) came out at 22 µM in experiment [1]; 31.7 µM in [2]; 12.9 µM in experiment [3]; 3.41 µM in [4]; 12.3 µM in [5]; 3.41 µM in experiment [6]. Moreover, the TGI in experiment [7] came out at 19.4 µM; in experiment [8], 37.9 µM; in [9], 36.8 µM; in [10], 2.96 µM.

As to `NCCCn1c2c(c3ccccc3c1=O)C(=O)c1cc3c(cc1-2)OCO3`, the GI50 was 0.118 µM in [1]; 1.54 µM in experiment [2]; 1.48 µM in experiment [4]; 0.17 µM in experiment [5]; 3.47 µM in [7]; 1.05 µM in experiment [8]. Besides, the GI50 in experiment [9] was 0.173 µM; in [10] it was 0.474 µM. Also, the TGI in experiment [1] was 1.51 µM; in experiment [2], 4.08 µM; in experiment [3], 1.72 µM; in [4], 6.64 µM; in experiment [5], 1.35 µM; in experiment [6] it was 4.17 µM. For the same compound, the figures for the TGI in experiment [7], in [8] and in experiment [10] were 12.8 µM, 4.43 µM and 4.79 µM, respectively.

Take `c1ccc(Oc2c3ccccc3nc3ccccc23)cc1`: the GI50 in experiment [1] was 3.4 µM; in experiment [2], 3.7 µM; in experiment [3], 3.49 µM; in experiment [4] it was 2.15 µM; in experiment [5], 0.48 µM; in experiment [7] it was 3.95 µM. In addition, the GI50 in [8] was 7.32 µM; in experiment [9] it was 6.22 µM; in [10] it was 2.22 µM. The TGI turned out to be 10.7 µM in experiment [1]; 13.7 µM in [2]; 14.2 µM in [3]; 8.71 µM in experiment [4]; 2.83 µM in experiment [5]; 17.6 µM in experiment [7]. The values for the TGI in [8], in experiment [9] and in experiment [10] were 27 µM, 24.8 µM and 10.7 µM, respectively.

As for `COc1ccc(-c2nc3sccn3c2/C=C/C(=O)c2cc(OC)c(OC)c(OC)c2)cc1OC`, the GI50 is 3.1 µM in experiment [1]; 2.45 µM in [2]; 1.99 µM in [3]; 3.33 µM in [4]; 3.48 µM in experiment [5]; 4.8 µM in experiment [6]. For the same compound, the GI50 in [7] is 1.87 µM; in [8] it was 2.27 µM; in experiment [9] it was 2.47 µM; in experiment [10] it was 1.3 µM. Also, the TGI was 9.3 µM in experiment [1]; 7.02 µM in experiment [2]; 5.43 µM in [3]; 54.1 µM in experiment [4]; 9.88 µM in [5]; more than 100 µM in [6]. For the same compound, the TGI in [7] was determined as 4.65 µM; in experiment [8], 5.98 µM; in experiment [9], 7.15 µM; in experiment [10] it was 3.77 µM.

As for `O=C1NC(=O)[C@@H](c2cn3c4c(cccc24)CCC3)[C@@H]1c1c[nH]c2ccccc12`, the GI50 in experiment [1] was 0.31 µM and 0.372 µM; in experiment [2], 0.652 µM and 1.1 µM; in [3], 0.348 µM and 0.198 µM; in experiment [4] it was 0.987 µM and 0.434 µM; in [5] it was 0.312 µM and 0.321 µM; in [6], 0.57 µM and 4.7 µM. In addition, the GI50 in experiment [7] is 0.37 µM and 0.57 µM; in [8], 0.327 µM and 0.369 µM; in experiment [9], 0.492 µM and 0.561 µM; in [10] it was 0.201 µM and 0.365 µM. Besides, the TGI is > 10 µM and 10.8 µM in experiment [1]; > 10 µM and 22.2 µM in [2]; > 10 µM and 26.6 µM in [4]; > 4.4 µM and 1.57 µM in [5]; > 10 µM and 35.5 µM in [6]; > 10 µM and 20.8 µM in [7]. For the same compound, the TGI was > 4.71 µM and 9.55 µM in [8]; > 10 µM and 14.3 µM in experiment [9].

In the case of `Cn1cc(-c2nc(-c3c[nH]c4ncccc34)cs2)c2cc(Cl)ccc21`, the GI50 in [1] was 4.85 µM; in experiment [2], 1.61 µM; in [3], 3.52 µM; in experiment [4] it was 12.5 µM; in [6], 5.78 µM; in experiment [7], 13.3 µM. The GI50 in experiment [8] was 3.94 µM; in experiment [9], 6.04 µM; in [10], 5.56 µM. Also, the TGI is 40.7 µM in experiment [1]; more than 100 µM in [2]; more than 100 µM in experiment [3]; 56.7 µM in [4]; more than 100 µM in [6]; more than 100 µM in experiment [7]. The TGI in [8], in experiment [9] and in [10] was more than 100 µM throughout.

The values above are taken from PubChem BioAssay (NCI).
